Measurements taken from PubChem BioAssay AID652275 (Broad Institute, 2013).
Records with an inconclusive call do not appear. Active and inactive are the calls of the source. How the calls were made is not given here.

System: not listed separately
Assay: T. cruzi growth inhibition in host cells, dose response, cell-based, plate reader, dry powder, set 2 (AID 652275)
Conditions: T. cruzi proliferation in host cells, plate reader; at 16 µM (top of the series)

Row | Structure (SMILES) | activity change, negative = inhibition
1 | CN(C)CC#Cc1cccc(-c2nc(C(=O)N3CCN(C)CC3)cc3c2[C@H](CCO)N(S(=O)C(C)(C)C)C3)c1 (stereo partly specified) | 1.54% (inactive)
2 | CC(C)N1C[C@@H](C)[C@H](CN(C)Cc2ccc(OCCCC(F)(F)C(F)(F)C(F)(F)C(F)(F)C(F)(F)C(F)(F)C(F)(F)C(F)(F)F)cc2)Oc2c(NC(=O)c3ccncc3)cccc2C1=O | 33.7% (inactive)
3 | CC(C)N1C[C@@H](C)[C@H](CN(C)C(=O)OC(C)(C)C)Oc2c(C#N)cccc2C1=O | -37% (inactive)
4 | C[C@@H](CO)N1CC[C@H](CNC(=O)OC(C)(C)C)Oc2c(cccc2[N+](=O)[O-])C1=O | -13.9% (inactive)
5 | CN(C)CC#Cc1cccc(-c2nc(C(=O)O)cc3c2[C@H](CCO)N(S(=O)C(C)(C)C)C3)c1 (stereo partly specified) | -23.9% (inactive)
6 | CC(C)N1C[C@@H](CN)Oc2c(NC(=O)c3ccncc3)cccc2C1=O | -29% (inactive)
7 | C[C@@H]1CN([C@@H](C)CO)C(=O)c2cccc(NC(=O)c3ccncc3)c2O[C@H]1CN(C)C | 18.7% (inactive)
8 | CN(C)CC#Cc1cccc(-c2nc(C(=O)N3CCN(C)CC3)cc3c2[C@@H](CCO)N(S(=O)C(C)(C)C)C3)c1 (stereo partly specified) | -4.18% (inactive)
9 | CC(C)N1C[C@@H](C)[C@H](CN(C)Cc2ccc(Oc3ccccc3)cc2)Oc2c(C(=O)O)cccc2C1=O | -33.8% (inactive)
10 | COCCNC(=O)c1cc2c(c(-c3cccc(C#CCN(C)C)c3)n1)[C@H](CCO)N(S(=O)C(C)(C)C)C2 (stereo partly specified) | -35.9% (inactive)

System: T. cruzi proliferation in host cells, plate reader
Assay: as above
Conditions: not given

Row | Structure (SMILES) | AC50 [nM]
11 | C[C@@H]1CN([C@@H](C)CO)C(=O)c2cccc(NC(=O)c3ccncc3)c2O[C@H]1CN(C)Cc1ccc(Oc2ccccc2)cc1 | 1.11
